In US9415047B2, “Use of benzo five-membered nitrogen heterocyclic piperazine or piperidine derivatives” (Liaoning Emmy Biological Pharmaceutical Co., Ltd., priority 2012, dated 2016):

Key:
[1] = test system: AD constricted rabbit aorta; assay: Relaxing effects on vascular smooth muscle constricted by adrenaline hydrochloride (AD) in vitro; details: relaxation of rabbit aorta constricted by adrenaline (10^−5 mol/L), mean±SEM, n=5; for EC50: Oryctolagus cuniculus
Summary of the method: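 Rabbit aortic strips in K-H solution precontracted with adrenaline hydrochloride (10^−5 mol/L) after a reproducible second contraction; compounds added cumulatively over ranges from 1×10^−10 up to 1×10^−2 mol/L depending on the compound series. Relaxation expressed as % of maximal relaxation versus −log concentration, mean±SEM, n=5.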

[2] = test system: NA constricted rabbit aorta; assay: Relaxing effects on vascular smooth muscle constricted by noradrenaline (NA) in vitro; details: relaxation of rabbit aorta constricted by noradrenaline (10^−5 mol/L), mean±SEM, n=5; for EC50: Oryctolagus cuniculus
Experimental: Adrenaline hydrochloride (AD) (10^−5 mol/L) was added into a bath tube to induce constriction, when maximal constriction was achieved, the sample was completely flushed, K-H solution was changed for every 20 min. Contents in the tube was balanced for 60 min, when baseline recovered to be stable, noradrenaline bitartrate (NA) (10^−5 mol/L) was added to induce constriction. When the later maximal constriction response was basically consistent with the former one, the prepared compound solutions were subsequently added, including compound II-84 to II-123 solutions (1×10^−10-1×10^−2 mol/L), compound II-124 to II-157 solutions (1×10^−10-1×10^−3 mol/L), to record the waveforms. Relaxing percentage of the compound was used as Y axis, maximal relaxation response was 100%, negative logarithm of different concentration was used as X axis, to draw dose effect curve (expressed in mean±SEM ( ? ), n=5).

[3] = test system: high kalium concentration constricted rabbit aorta; assay: Relaxing effects on vascular smooth muscle constricted by high kalium concentration in vitro; details: relaxation of rabbit aorta constricted by high kalium solution (K+ 60 mmol/L), mean±SEM, n=5; for EC50: Oryctolagus cuniculus
Summary of the method: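 Rabbit aortic rings pre-challenged with adrenaline (10^−5 mol/L), washed and re-equilibrated 60 min in K-H solution, then constricted with high-K+ solution; compounds added cumulatively over 1×10^−10–1×10^−2 mol/L depending on series. Relaxation expressed as % of maximal relaxation vs −log concentration; mean±SEM, n=5.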

Row | SMILES | EC50 [1] | EC50 [2] | EC50 [3] | −logEC50 [1] | −logEC50 [3] | −logEC50 [2]
1 | COc1ccc2nnn(OCCN3CCC(c4noc5ccccc45)CC3)c2c1 [II-147, N-(2-(6-methoxylbenzotriazolyl)ethoxyl)-4-(3-benzisoxazolyl)piperidine] | 93.3 µM | 49 µM | 295 µM |  |  | 
2 | c1coc(C2CCN(CCCCn3cnc4ccccc43)CC2)c1 [II-118, N-(4-(1H-benzimidazoyl-1-yl)butyl)-4-(2-furyl)piperidine] |  | 58.9 µM |  | 4.43 ± 0.05 | 3.53 ± 0.03 | 
3 | c1cnc(C2CCN(CCCCn3cnc4ccccc43)CC2)nc1 [II-120, N-(4-(1H-benzimidazoyl-1-yl)butyl)-4-(2-pyrimidinyl)piperidine] | 19.1 µM | 30.2 µM |  |  | 3.32 ± 0.02 | 
4 | Fc1ccc2c(C3CCN(CCCn4nnc5ccc(Cl)cc54)CC3)noc2c1 [II-89, N-(3-(6-chloro-1H-benzotriazole-1-yl)propyl)-4-(3-(6-fluorobenzisoxazolyl))piperidine] |  |  |  | 5.42 ± 0.04 | 4.12 ± 0.04 | 5.22 ± 0.04
5 | N#Cc1ccc2nnn(CCCCN3CCC(c4cccc(C(F)(F)F)c4)CC3)c2c1 [II-115, N-(4-(6-cyano-1H-benzotriazole-1-yl)butyl)-4-(3-trifluoromethylphenyl)piperidine] |  | 29.5 µM |  | 4.79 ± 0.02 | 3.23 ± 0.02 | 
6 | COc1ccc2nnn(OCCN3CCC(c4noc5cc(F)ccc45)CC3)c2c1 [II-98, N-(2-(6-methoxylbenzotriazolyl)ethoxyl)-4-(3-(6-fluorobenzisoxazolyl))piperidine] | 93.3 µM | 49 µM | 295 µM |  |  | 
7 | Fc1cccc(C2CCN(CCCCn3cnc4ccccc43)CC2)c1 [II-111, N-(4-(1H-benzimidazoyl-1-yl)butyl)-4-(3-fluorophenyl)piperidine] |  | 21.4 µM |  | 4.89 ± 0.02 | 3.44 ± 0.02 | 
8 | COc1ccccc1C1CCN(CCCCn2cnc3ccccc32)CC1 [II-112, N-(4-(1H-benzimidazoyl-1-yl)butyl)-4-(2-methoxylphenyl)piperidine] |  | 28.2 µM |  | 4.76 ± 0.03 | 3.38 ± 0.03 | 
9 | c1ccc2c(C3CCN(CCCCn4nnc5ccccc54)CC3)cccc2c1 [II-122, N-(4-(1H-benzotriazole-1-yl)butyl)-4-(1-naphthyl)piperidine] | 60.3 µM | 45.7 µM |  |  | 3.04 ± 0.03 | 
10 | COc1ccc2c(C3CCN(CCCn4nnc5ccccc54)CC3)noc2c1 [II-87, N-(3-(1H-benzotriazole-1-yl)propyl)-4-(3-(6-methoxylbenzisoxazolyl))piperidine] |  |  |  | 5.34 ± 0.03 | 4.12 ± 0.03 | 5.04 ± 0.03
11 | Fc1ccc2c(C3CCN(CCCn4nnc5ccc(F)cc54)CC3)noc2c1 [II-88, N-(3-(6-fluoro-1H-benzotriazole-1-yl)propyl)-4-(3-(6-fluorobenzisoxazolyl))piperidine] |  |  |  | 5.61 ± 0.05 | 4.72 ± 0.05 | 5.73 ± 0.05
12 | Cc1ccc2c(C3CCN(CCCn4nnc5ccccc54)CC3)noc2c1 [II-86, N-(3-(1H-benzotriazole-1-yl)propyl)-4-(3-(6-methylbenzisoxazolyl))piperidine] |  |  |  | 5.45 ± 0.04 | 4.09 ± 0.04 | 5.26 ± 0.04
13 | c1ccc2c(c1)ncn2CCCCN1CCC(c2ccncc2)CC1 [II-119, N-(4-(1H-benzimidazoyl-1-yl)butyl)-4-(4-pyridyl)piperidine] |  | 21.9 µM |  | 4.86 ± 0.04 | 3.26 ± 0.04 | 
14 | c1ccc2c(c1)nnn2OCCN1CCC(c2noc3ccccc23)CC1 [II-148] | 55 µM | 91.2 µM | 55 µM |  |  | 
15 | COc1ccc2nnn(CCCCN3CCC(c4cccc(C(F)(F)F)c4)CC3)c2c1 [II-114, N-(4-(6-methoxyl-1H-benzotriazole-1-yl)butyl)-4-(3-trifluoromethylphenyl)piperidine] |  | 17 µM |  | 4.86 ± 0.03 | 3.56 ± 0.03 | 

The next lines start with results.

Row | EC50 [1] | EC50 [2] | EC50 [3] | SMILES | −logEC50 [1] | −logEC50 [3] | −logEC50 [2]
16 |  | 6.17 µM |  | Fc1ccc2nnn(CCCCN3CCC(c4cccc(C(F)(F)F)c4)CC3)c2c1 [II-113, N-(4-(6-fluoro-1H-benzotriazole-1-yl)butyl)-4-(3-trifluoromethylphenyl)piperidine] | 5.31 ± 0.04 | 4.03 ± 0.04 | 
17 |  | 4.37 µM |  | FC(F)(F)c1cccc(C2CCN(CCCOn3nnc4ccccc43)CC2)c1 [II-116, N-(4-(1H-benzotriazole-1-yl)propoxyl)-4-(3-trifluoromethylphenyl)piperidine] | 5.56 ± 0.05 | 4.22 ± 0.05 | 
18 |  | 8.13 µM |  | COc1ccc2c(C3CCN(CCCCn4nnc5ccc(C#N)cc54)CC3)noc2c1 [II-97, N-(4-(6-cyanobenzotriazolyl)butyl)-4-(3-(6-methoxylbenzisoxazolyl))piperidine] | 5.23 ± 0.06 | 3.23 ± 0.04 | 
19 | 0.589 µM | 0.676 µM | 53.7 µM | c1ccc2c(c1)nnn2CCCN1CCC(c2noc3ccccc23)CC1 [II-84, N-(3-(1H-benzotriazole-1-yl)propyl)-4-(3-benzisoxazolyl)piperidine] |  |  | 
20 | 9.55 µM | 9.55 µM | 380 µM | N#Cc1ccc2cnn(CCCCN3CCC(c4noc5cc(F)ccc45)CC3)c2c1 [II-104, N-(4-(6-cyanobenzopyrazol)butyl)-4-(3-(6-fluorobenzisoxazolyl))piperidine] |  |  | 
21 |  | 0.355 µM |  | FC(F)(F)c1cccc(C2CCN(CCCCn3nnc4ccccc43)CC2)c1 [II-110, N-(4-(1H-benzotriazole-1-yl)butyl)-4-(3-trifluoromethylphenyl)piperidine] | 6.36 ± 0.03 | 5.12 ± 0.03 | 
22 |  | 7.08 µM |  | FC(F)(F)c1cccc(C2CCN(CCCOn3cnc4ccccc43)CC2)c1 [II-117, N-(4-(1H-benzimidazole-1-yl)propoxyl)-4-(3-trifluoromethylphenyl)piperidine] | 5.31 ± 0.06 | 4.17 ± 0.06 | 
23 |  | 0.479 µM |  | FC(F)(F)c1cccc(C2CCN(CCCCn3cnc4ccccc43)CC2)c1 [II-109, N-(4-(1H-benzimidazoyl-1-yl)butyl)-4-(3-trifluoromethylphenyl)piperidine] | 6.21 ± 0.04 | 5.01 ± 0.04 | 
24 |  | 5.37 µM |  | Clc1cccc(C2CCN(CCCCn3nnc4ccccc43)CC2)c1 [II-108, N-(4-(1H-benzotriazole-1-yl)butyl)-4-(3-chlorophenyl)piperidine] | 5.16 ± 0.03 | 3.82 ± 0.03 | 
25 |  | 0.851 µM |  | COc1ccc2nnn(CCCN3CCC(c4noc5ccccc45)CC3)c2c1 [II-93, N-(3-(6-methoxylbenzotriazolyl)propyl)-4-(3-benzisoxazolyl)piperidine] | 6.11 ± 0.07 | 4.11 ± 0.03 | 
26 |  | 4.47 µM |  | Cc1ccc2nnn(CCCN3CCC(c4noc5cc(F)ccc45)CC3)c2c1 [II-90, N-(3-(6-methyl-1H-benzotriazole-1-yl)propyl)-4-(3-(6-fluorobenzisoxazolyl))piperidine] | 5.38 ± 0.03 | 4.28 ± 0.03 | 
27 |  | 1.86 µM |  | O=Cc1ccc2nnn(CCCN3CCC(c4noc5cc(F)ccc45)CC3)c2c1 [II-92, N-(3-(6-formoxyl-1H-benzotriazole-1-yl)propyl)-4-(3-(6-fluorobenzisoxazolyl))piperidine] | 5.56 ± 0.04 | 4.32 ± 0.04 | 
28 |  | 4.9 µM |  | COc1ccc2nnn(CCCN3CCC(c4noc5cc(F)ccc45)CC3)c2c1 [II-91, N-(3-(6-methoxyl-1H-benzotriazole-1-yl)propyl)-4-(3-(6-fluorobenzisoxazolyl))piperidine] | 5.23 ± 0.05 | 4.02 ± 0.05 | 
29 |  | 7.76 µM |  | Clc1cccc(C2CCN(CCCCn3cnc4ccccc43)CC2)c1 [II-107, N-(4-(1H-benzimidazoyl-1-yl)butyl)-4-(3-chlorophenyl)piperidine] | 5.03 ± 0.02 | 3.69 ± 0.02 | 
30 | 6.17 µM | 7.76 µM | 617 µM | Fc1ccc2c(C3CCN(CCCn4ncc5ccccc54)CC3)noc2c1 [II-103, N-(3-(1-benzopyrazol)propyl)-4-(3-(6-fluorobenzisoxazolyl))piperidine] |  |  | 
31 | 3.8 µM | 6.03 µM |  | Fc1ccc2c(C3CCN(CCCn4nnc5ccc(Cl)cc54)CC3)noc2c1 [II-138, N-(3-(6-chloro-1H-benzotriazole-1-yl)propyl)-4-(3-(6-fluorobenzisoxazolyl))piperidine] |  |  | 
